Entries after “also recorded” stand apart in the source; their conditions may differ.
Columns and labels:
fourth-order PAs = assay: Pressure myography of mouse fourth-order PAs
Excerpt: Mouse fourth-order PAs (˜50 μm) were cannulated on glass micropipettes in a pressure myography chamber (The Instrumentation and Model Facility; University of Vermont; Burlington; VT; USA) and pressurized to a physiological pressure of 15 mm Hg (24). Briefly, freshly dissected lungs were placed in ice cold HEPES buffer in a dissection plate. The left lung was stretched and pinned down, with ventral side facing up. First, pulmonary veins, and then the airway were cut open to gain access to the pulmonary arteries underneath. Once PAs were visible, they were gently separated from surrounding tissue (25). Arteries were superfused with bicarbonate-physiological salt solution (PSS; 119 mmol/L NaCl; 4.7 mmol/L KCl; 1.2 mmol/L KH2PO4; 1.2 mmol/L MgCl2 hexahydrate; 2.5 mmol/L CaCl2) dihydrate; 7 mmol/L dextrose; and 24 mmol/L NaHCO3) at 37° ° C. and bubbled with 20% O2/5% CO2 to maintain the pH at 7.4. Approximately 20% PAs from normal mice develop myogenic tone, whereas ˜65% PA from Su+CH mice show myogenic tone at 15 mm Hg. Due to the relatively small percentage of PAs from normal mice showing myogenic tone, we pre-constricted all PAs with 30 nmol/L U46619 (a thromboxane A2 receptor agonist). […] U46619 was added to the chamber immediately, before the arteries could develop myogenic tone. Before measuring vascular reactivity, arteries were treated with NS309 (1 μmol/L), a direct activator of endothelial IK/SK channels, to assess endothelial health. […] Changes in arterial diameter were recorded at a 60-ms frame rate using a charge-coupled device camera and edge-detection software (IonOptix LLC; Westwood; MA; USA) (11, 26). At the end of each experiment, Ca^2+-free PSS (119 mmol/L NaCl; 4.7 mmol/L KCl; 1.2 mmol/L KH2PO4; 1.2 mmol/L MgCl2 hexahydrate; 7 mmol/L dextrose; 24 mmol/L NaHCO3; and 5 mmol/L EGTA) was applied to assess the maximum passive diameter. Percent constriction was calculated by:
[formula] • where Diameterbefore is the diameter of the artery before treatment and Diameterafter is the diameter after treatment. Percent dilation was calculated by:
[formula] • where Diameterbasal is the stable diameter before drug treatment, Diameterdilated is the diameter after drug treatment, and Diameterca-free is the maximum passive diameter.

large PAs = conditions: rats exposed to chronic hypoxia; reference (49); cited from earlier work
[1] = system: IK/SK channels in SMCs from PAs; assay: Whole-cell patch-clamp in freshly isolated SMCs from small PAs; format: cell-based, mouse; conditions: TRAM-34 1 μmol/L and Apa 300 nmol/L added together after NS309 1 μmol/L; SMCs from control or Su+CH mice
Method: For SMC isolation (27), arterial segments were transferred to a 12×75 mm borosilicate glass culture tube containing 1 mL dissociation solution (145 mmol/L NaCl; 4 mmol/L KCl; 1 mmol/L MgCl2; 10 mmol/L HEPES; 0.05 mmol/L CaCl2), 10 mmol/L glucose; pH 7.3) and 0.5 mg/mL bovine serum albumin (BSA) and incubated for 10 minutes at room temperature (˜24° C.). The solution was then replaced with 1 mL dissociation solution containing 1 mg/mL papain (Sigma Aldrich) and 0.5 mg/mL dithiothreitol (Sigma Aldrich), and incubation was continued at 37° C. for 20 minutes. […]
Whole-cell currents were measured at room temperature using conventional whole-cell patch-clamp electrophysiology. […] The pipette solution for conventional patch clamp consisted of 10 mmol/L HEPES, 123.2 mmol/L KCl, 10 mmol/L NaCl, 5.5 mmol/L MgCl2, 0.2 mmol/L CaCl2) and 5 mmol/L HEDTA (adjusted to pH 7.2 with 16.8 mm KOH) and contained 3 μm free-Ca^2+ and 1 mmol/L free-Mg^2+, as calculated using the Max-Chelator program (Chris Patton; Stanford University; Stanford; CA; USA). […] Data were acquired using a Multiclamp 700B amplifier connected to a Digidata 1550B system and analyzed using Clampfit 11.1 software (Molecular Devices, San Jose, CA, USA).
NS309-induced ionic currents were measured in freshly isolated SMCs (FIG. 4A) from PAs in whole-cell patch-clamp experiments (FIGS. 4B and 4C).

IK/SK channels = conditions: reference (37); cited from earlier work
[2] = Cardiac functional magnetic resonance imaging; format: in vivo, mouse; conditions: acute SKA-31 administration
Su+CH mouse model of PH [3] = assay: RVSP measurement after acute treatment; format: in vivo
Method: (§1) PH was induced by exposing C57BL6/J mice to chronic hypoxia (CH; 10% 02: 4 weeks) with concurrent treatment with the receptor tyrosine kinase inhibitor, SU5416 (20 mg·kg^−1), administered subcutaneously (s.c.) once a week (20). SU5416 was dissolved in DMSO/PEG 400 (50/50). Mice were exposed to CH conditions in a vinyl hypoxic chamber (Coy Laboratory Products; Inc. Grass Lake; MI; USA) connected to an auto purge airlock inlet. Oxygen concentration in the glove box was regulated by an oxygen controller and oxygen sensor (Coy Laboratory Products, Inc.). Control mice were maintained in room air for 4 weeks.
(§2) Mice were anesthetized with pentobarbital (50 mg·kg^−1; i.p.), and bupivacaine HCl (100 μL of 0.25% solution; s.c.) was used to numb the dissection site on the mouse. RVSP was measured as an indirect indicator of PAP (18, 21). Mice were cannulated with a Mikro-Tip pressure catheter (SPR-671; Millar Instruments; Houston; TX; USA), connected to a bridge amp (FE221) and a PowerLab 4/35 4-channel recorder (ADInstruments; Colorado Springs; CO; USA), through the external jugular vein into the right ventricle. Right ventricular pressure was acquired and analyzed using LabChart8 software (ADInstruments). In the subgroup of mice treated with SKA-31 (30 mg·kg^−1; i.p.), RVSP was measured before SKA-31 injection and 20 minutes after. A stable 3-minute recording was acquired for all animals, and a 1-minute continuous segment was used for data analysis. Where necessary, traces were digitally filtered using a low-pass filter at a cut-off frequency of 50 Hz. At the end of experiments, mice were euthanized, and their hearts were isolated for right ventricular hypertrophy analysis. Right ventricular hypertrophy was determined by calculating the Fulton index, a ratio of the right ventricular (RV) heart weight over the left ventricular (LV) plus septum (S) weight (RV/LV+S).

Su+CH mouse model of PH [4] = assay: Chronic treatment: RVSP, Fulton index and PA remodeling (histology, immunostaining); format: in vivo
Method: as §1
For PA remodeling studies, mice in the experimental group were treated with the IK/SK channel activator, SKA-31 (30 mg·kg^−1; i.p.), twice a day for the final 7 days of Su+CH exposure. Control mice were exposed to Su+CH for 4 weeks but were injected with vehicle instead of SKA-31. At the end of week 4 of Su+CH exposure, mice were euthanized with pentobarbital (90 mg·kg^−1; i.p.; UVA Hospital Pharmacy) and left lungs were perfused with the NO donor and fast-acting vasodilator, SNP (50 μmol/L; Sigma Aldrich), followed by incubation overnight at room temperature with 4% paraformaldehyde (PFA) for histology and immunostaining.
as §2
Isolated left lungs were perfused with PBS containing 50 μmol/L SNP and fixed in 4% PFA overnight at room temperature before paraffin embedding and sectioning. After sectioning paraffinized lungs, sections (5-μm thick) were deparaffinized and incubated in endogenous peroxidase (30%) for 30 minutes at room temperature, followed by a 5-minute wash with double-distilled H2O. For antigen retrieval, sections were microwaved in a citrate-based antigen unmasking solution (Vector Laboratories; Newark; CA; USA) for 20 minutes with brief pauses to avoid boiling. After allowing slides to cool in the antigen unmasking solution for 1 hour at room temperature, sections were permeabilized by incubating with 0.2% Triton-X for 30 minutes on a shaking rocker at room temperature, then blocked by incubating with 0.2% Triton-X, 5% normal donkey serum (ab7475; Abcam; Cambridge; MA; USA) and fish skin gelatin (FSG; Sigma Aldrich) for 1 hour. […]

[5] = cited from earlier work
[6] = reference (33); cited from earlier work
[7] = 30 mg·kg−1 i.p. twice a day for 7 days

CCCCC[C@H](O)/C=C/[C@@H]1[C@@H](C/C=C\CCCC(=O)O)[C@H]2CO[C@@H]1C2 [U46619]
Arteries showing a constriction (fourth-order PAs; U46619 30 nmol/L, both normal and PH groups): More than 95%

CCn1c(=O)n(CC)c2c(Cl)c(Cl)ccc21 [NS4591]
Dilatory response of large PAs after chronic hypoxia (large PAs): decreases

Clc1ccccc1C(c1ccccc1)(c1ccccc1)n1cccn1 [TRAM-34]
Effect on NS309-induced outward currents in SMCs [1]: did not reduce | Constriction of small PAs (fourth-order PAs; TRAM-34 1 μmol/L and Apa 300 nmol/L applied together, not different between N and Su+CH mice): ~10%

NC(=NCCC[C@H](N)C(=O)O)N[N+](=O)[O-] [L-NNA]
Constriction of PAs from Su+CH mice (fourth-order PAs; L-NNA 100 μmol/L, Su+CH mice): unable constrict | Constriction of PAs from N mice (fourth-order PAs; L-NNA 100 μmol/L, normoxic mice): ~20%

Nc1ncnc2c1ncn2[C@@H]1O[C@H](COP(=O)(O)OP(=O)(O)OP(=O)(O)O)[C@@H](O)[C@H]1O [ATP, adenosine triphosphate]
Dilation of PAs from CH+Su mice (fourth-order PAs; CH+Su mice): unable to dilate

Nc1nc2c(ccc3ccccc32)s1 [SKA-31, naphtho[1,2-d]thiazol-2-ylamine]
Potency as activator of IK/SK channels relative to NS309 (IK/SK channels): less potent | Cardiac output [2]: does not alter | Ejection fraction [2]: does not alter | Heart rate [2]: does not alter | Stroke volume [2]: does not alter | RVSP in Su+CH mice, acute treatment (Su+CH mouse model of PH [3]; 30 mg·kg−1 i.p., RVSP before and 20 minutes after injection, Su+CH mice): significantly reduced; also recorded: lowered | RVSP in normal (N) mice, acute treatment (Su+CH mouse model of PH [3]; 30 mg·kg−1 i.p., normoxic/control mice): not in N mice; also recorded: not observed in normal mice; also recorded: not in control mice | PAP in Su+CH mice, acute treatment (Su+CH mouse model of PH [3]; acute SKA-31, Su+CH mice but not control mice): lowered | Collagen content of PAs (Masson's Trichrome) in Su+CH mice (Su+CH mouse model of PH [4]; [7]): reduced | Fulton index (right ventricular hypertrophy) in Su+CH mice, chronic treatment (Su+CH mouse model of PH [4]; [7]): significantly lowered; also recorded: reduced | α-actin immunostaining of PAs in Su+CH mice (Su+CH mouse model of PH [4]; [7]): reduced | RVSP in Su+CH mice, chronic treatment (Su+CH mouse model of PH [4]; 30 mg·kg−1 i.p. twice a day for 7 days, fourth week of Su+CH): significantly lowered | Pulmonary artery lesions in Su+CH mice, chronic treatment (Su+CH mouse model of PH [4]; chronic SKA-31): reduced | Metabolism ([5]; reason for in vivo use instead of NS309, reference (33)): favorable metabolism | Half-life in vivo ([5]; references (37, 38)): longer half-life | Resting systemic blood pressure [6]: lowered
